Assay results taken from EP4722219A1 (Gan & Lee Pharmaceuticals Co., Ltd., priority 2023, dated 2024).

What was measured:
AR protein = target: T1, AR protein (Homo sapiens, UniProt P10275); experiment: AR protein degradation in VCaP cells (Western blot); format: cell-based; conditions: 8h
T1 construct: host or cells: VCaP
T1 sequence (P10275 1-920): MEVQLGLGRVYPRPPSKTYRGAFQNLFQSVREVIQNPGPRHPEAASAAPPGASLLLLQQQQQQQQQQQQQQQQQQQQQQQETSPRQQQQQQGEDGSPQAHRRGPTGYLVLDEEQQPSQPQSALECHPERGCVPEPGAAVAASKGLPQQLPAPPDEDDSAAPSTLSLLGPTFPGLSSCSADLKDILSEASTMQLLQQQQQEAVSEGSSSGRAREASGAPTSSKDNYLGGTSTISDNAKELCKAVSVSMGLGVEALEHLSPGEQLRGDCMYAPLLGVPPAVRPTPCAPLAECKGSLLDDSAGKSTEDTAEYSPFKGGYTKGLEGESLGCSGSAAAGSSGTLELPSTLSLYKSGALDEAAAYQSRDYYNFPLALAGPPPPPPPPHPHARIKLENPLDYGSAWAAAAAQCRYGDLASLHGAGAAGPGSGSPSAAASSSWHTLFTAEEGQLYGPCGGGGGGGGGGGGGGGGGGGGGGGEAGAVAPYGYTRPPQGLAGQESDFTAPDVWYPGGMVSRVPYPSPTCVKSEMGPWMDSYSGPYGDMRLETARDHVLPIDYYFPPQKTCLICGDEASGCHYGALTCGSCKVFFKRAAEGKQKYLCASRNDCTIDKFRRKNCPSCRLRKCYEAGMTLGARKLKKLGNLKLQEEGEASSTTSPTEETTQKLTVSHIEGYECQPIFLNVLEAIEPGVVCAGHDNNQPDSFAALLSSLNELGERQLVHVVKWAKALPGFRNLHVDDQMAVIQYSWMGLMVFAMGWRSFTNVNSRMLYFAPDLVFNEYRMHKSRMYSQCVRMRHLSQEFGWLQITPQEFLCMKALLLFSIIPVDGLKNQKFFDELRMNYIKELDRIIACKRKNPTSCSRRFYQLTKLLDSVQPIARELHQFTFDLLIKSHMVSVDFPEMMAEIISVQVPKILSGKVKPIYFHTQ
Method in brief: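 AR-positive VCaP human prostate cancer cells grown in DMEM with 10% FBS were plated in six-well plates at 3×10^5 cells/well and incubated overnight. Compounds were then added at 1 µL/well alongside a solvent control and incubated for 8h. Lysates in RIPA buffer with protease inhibitor were quantified by BCA and run by SDS-PAGE. AR was detected by Western blot, and degradation was calculated from band grayscale normalized to GAPDH.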

LNCaP cells = experiment: Inhibition of LNCaP cell proliferation (WST-8); format: cell-based; conditions: LNCaP FGC cells, 96 hours
Method in brief: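 Cells were seeded and cultured overnight at 37 °C, 5% CO2, then exposed for 96 h to compound at 9 concentrations, 5-fold serial dilution from 10 µM final. Viability was read by WST-8 absorbance at 450 nm.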

Degradation rate of AR protein in VCaP cells (AR protein; 0.5 nM)	Degradation rate of AR protein in VCaP cells (AR protein; 5 nM)	IC50 (LNCaP cells; Homo sapiens)	IC50 (LNCaP cells)	SMILES
13%	18%	18.6 µM	–	COc1cc(O[C@H]2C(C)(C)[C@H](NC(=O)c3ccc(N4CCC(F)(CN5CCC6(CCc7cc(F)c(C(=O)N[C@H]8CCC(=O)NC8=O)cc7O6)CC5)CC4)cc3)C2(C)C)ccc1C#N [A-P-41]
9%	45%	0.82 µM	–	COc1cc(O[C@H]2C(C)(C)[C@H](NC(=O)c3ccc(N4CCC(CN5CCC6(CCc7cc(C(=O)N[C@H]8CCC(=O)NC8=O)c(F)cc7O6)CC5)(OC)CC4)cc3)C2(C)C)ccc1C#N [A-P-36]
0%	47%	0.87 µM	–	COc1cc(O[C@H]2C(C)(C)[C@H](NC(=O)c3ccc(N4CCC(CN5CCC6(CCc7cc(C(=O)N[C@H]8CCC(=O)NC8=O)c(F)cc7O6)CC5)CC4)nn3)C2(C)C)ccc1C#N [A-P-34, 1'-((1-(6-(((1R,3R)-3-(4-cyano-3-methoxyphenoxy)-2,2,4,4-tetramethylcyclobutyl)carbamoyl)pyridazin-3-yl)piperidin-4-yl)methyl)-N-((S)-2,6-dioxopiperidin-3-yl)-7-fluorospiro[chroman-2,4'-piperidin]-6-carboxamide]
9%	80%	–	1.07 µM	COc1cc(O[C@H]2C(C)(C)[C@H](NC(=O)c3ccc(N4CCC(CN5CCN(c6ccc(C(=O)N[C@H]7CCC(=O)NC7=O)c(F)c6)CC5)CC4)cc3)C2(C)C)ccc1C#N [ARV-766, reference compound]
-15%	45%	0.6 µM	–	COc1cc(O[C@H]2C(C)(C)[C@H](NC(=O)c3ccc(N4CCC(C)(CN5CCC6(CCc7cc(C(=O)N[C@H]8CCC(=O)NC8=O)c(F)cc7O6)CC5)CC4)nc3)C2(C)C)ccc1C#N [A-P-49, 1'-((1-(5-(((1R,3R)-3-(4-cyano-3-methoxyphenoxy)-2,2,4,4-tetramethylcyclobutyl)carbamoyl)pyridin-2-yl)-4-methylpiperidin-4-yl)methyl)-N-((S)-2,6-dioxopiperidin-3-yl)-7-fluorospiro[chroman-2,4'-piperidin]-6-carboxamide]
50%	78%	3.52 µM	–	COc1cc(O[C@H]2C(C)(C)[C@H](NC(=O)c3ccc(N4CCC(C)(CN5CC6(CCC7(CC6)COc6c7ccc7c6CN(C6CCC(=O)NC6=O)C7=O)C5)CC4)cc3)C2(C)C)ccc1C#N (relative stereo) [A-P-4]
-1%	14%	0.2 µM	–	COc1cc(O[C@H]2C(C)(C)[C@H](NC(=O)c3ccc(N4CCC(F)(CN5CCC6(CCc7cc(C(=O)N[C@H]8CCC(=O)NC8=O)c(F)cc7O6)CC5)CC4)cc3)C2(C)C)ccc1C#N [A-P-52, 1'-((1-(4-(((1r,3r)-3-(4-cyano-3-methoxyphenoxy)-2,2,4,4-tetramethylcyclobutyl)carbamoyl)phenyl)-4-fluoropiperidin-4-yl)methyl)-N-((S)-2,6-dioxopiperidin-3-yl)-7-fluorospiro[chroman-2,4'-piperidin]-6-carboxamide]
38%	73%	1 µM	–	COc1cc(O[C@H]2C(C)(C)[C@H](NC(=O)c3ccc(N4CCC(F)(CN5CC6(CCC7(CC6)COc6c7ccc7c6CN(C6CCC(=O)NC6=O)C7=O)C5)CC4)cc3)C2(C)C)ccc1C#N (relative stereo) [A-P-5]
33%	32%	0.36 µM	–	COc1cc(O[C@H]2C(C)(C)[C@H](NC(=O)c3ccc(N4CCC(C)(CN5CCC6(CCc7cc(C(=O)N[C@H]8CCC(=O)NC8=O)c(F)cc7O6)CC5)CC4)cn3)C2(C)C)ccc1C#N [A-P-43, 1'-((1-(6-(((1r,3r)-3-(4-cyano-3-methoxyphenoxy)-2,2,4,4-tetramethylcyclobutyl)carbamoyl)pyridin-3-yl)-4-methylpiperidin-4-yl)methyl)-N-((S)-2,6-dioxopiperidin-3-yl)-7-fluorospiro[chroman-2,4'-piperidin]-6-carboxamide]

SMILES	Degradation rate of AR protein in VCaP cells (AR protein; 0.5 nM)	Degradation rate of AR protein in VCaP cells (AR protein; 5 nM)	IC50 (LNCaP cells; Homo sapiens)	IC50 (LNCaP cells)
COc1cc(O[C@H]2C(C)(C)[C@H](NC(=O)c3ccc(N4CCC(CN5CCC6(CCc7cc(F)c(C(=O)N[C@H]8CCC(=O)NC8=O)cc7O6)CC5)CC4)cc3)C2(C)C)ccc1C#N [A-P-39]	-6%	9%	12.4 µM	–
N#Cc1ccc(O[C@H]2CC[C@H](NC(=O)c3ccc(N4CCC(N5CCC6(CC5)CCC5(CC6)COc6c5ccc5c6CN(C6CCC(=O)NC6=O)C5=O)CC4)nn3)CC2)cc1Cl (relative stereo) [A-P-7, N-((1r,4r)-4-(3-chloro-4-cyanophenoxy)cyclohexy 1)-6-(4-(7-(2,6-dioxopiperidin-3-yl)-6-oxo-7,8-dihydro-2H,6H-dipyridyl[2,3-e]isoindole-3,1'-cyclohexane-4',4'"-piperidin]-1"-yl)pyridazine-3-carboxamide]	79%	89%	1.88 µM	–
COc1cc(O[C@H]2C(C)(C)[C@H](NC(=O)c3ccc(N4CCC(CN5CCC6(CC5)COc5c6ccc(C(=O)N[C@H]6CCC(=O)NC6=O)c5F)(OC)CC4)cc3)C2(C)C)ccc1C#N [A-P-86, 1'-((1-(4-(((1r,3r)-3-(4-cyano-3-methoxyphenoxy)-2,2,4,4-tetramethylcyclobutyl)carbamoyl)phenyl)-4-methoxypiperidin-4-yl)methyl)-N-((S)-2,6-dioxopiperidin-3-yl)-7-fluoro-2H-spiro[benzofuran-3,4'-piperidin]-6-carboxamide]	-30%	1%	0.39 µM	–
COc1cc(O[C@H]2C(C)(C)[C@H](NC(=O)c3ccc(N4CCC(CN5CC6(CCC7(CC6)COc6c7ccc7c6CN(C6CCC(=O)NC6=O)C7=O)C5)CC4)cc3)C2(C)C)ccc1C#N (relative stereo) [A-P-3]	53%	87%	3.43 µM	–
COc1cc(O[C@H]2C(C)(C)[C@H](NC(=O)c3ccc(N4CCC(C)(CN5CCC6(CC5)COc5cc7c(cc56)n(C)c(=O)n7C5CCC(=O)NC5=O)CC4)cc3)C2(C)C)ccc1C#N (relative stereo) [A-P-16]	66%	83%	> 90 µM	–
Cn1c(=O)n(C2CCC(=O)NC2=O)c2cc3c(cc21)C1(CCN(C2CC4(CCN(c5ccc(C(=O)N[C@H]6CC[C@H](Oc7ccc(C#N)c(Cl)c7)CC6)nn5)CC4)C2)CC1)CO3 (relative stereo) [A-P-12, N-((1r,4r)-4-(3-chloro-4-cyanophenoxy)cyclohexy 1)-6-(2-(3-(2,6-dioxopiperidin-3-yl)-1-methyl-2-oxo-2,3-dihydro-1H,6H-spiro[benzofuro[5,6-d]imidazole-7,4'-piperidin]-1'-yl)-7-azaspiro[3.5]nonan-7-yl)pyridazine-3-carboxamide]	88%	88%	8.11 µM	–
